One assay has as its target T1, PAF receptor (Oryctolagus cuniculus, UniProt G1TEI7).
T1 construct: centrifuged at 800 rpm for 10-15 minutes at room temperature to recover the platelet rich plasma (PRP); endogenous in cells; host or cells: rabbit platelets (platelet rich plasma from citrated blood of male New Zealand White rabbits)
Description: In vitro PAF antagonism: inhibition of PAF induced platelet aggregation in rabbit platelet rich plasma. The assay is classed as cell-based, rabbit (male New Zealand White). Particulars: rabbit PRP. Here is the method: Test compounds are evaluated as PAF receptor antagonists in vitro by measuring inhibition of PAF (platelet activating factor) induced platelet aggregation. Platelet aggregation is measured by a modification of the method described in A. Wissnet, et. al., J. Med. Chem., 27 1174, 1984.
Approximately 120-240 ml of blood is collected by cardiac puncture from unanesthetized male New Zealand White rabbits (Whaley's Summit View Farms, Belvedere, N.J.) with the use of 3.2% sodium citrate anticoagulant (1 part of citrate/10 parts of blood). All syringes and pipers are plastic. The blood is gently mixed and immediately centrifuged at 800 rpm for 10-15 minutes at room temperature to recover the platelet rich plasma (PRP). Platelet poor plasma (PPP) is prepared by centrifuging PRP at 2800 rpm for 10 minutes at room temperature.
Dilutions (113000) of PRP in Isoton, diluent are made and platelet counts are determined on a Coulter Thrombocounter which is standardized with platelet reference standards (Interscience Platelet Control, Portland, Oreg.). PRP platelet counts are adJusted to approximately 400,000-500,000 platelets/11 by the addition of PPP.
L-PAF (Platelet Activating Factor) is obtained from Calbiochem. A stock solution of 1-2 E-3M is prepared in 10% ethanol in water or 100% methanol and serial working dilutions are made using saline. E-3M stock solutions of test compounds are prepared in 100% methanol and serially diluted in PBS. Sonication of samples before testing in biological screens assists in the solubility of compounds in the liquid medium. All solutions are made up in plastic tubes, stored on ice and protected from heat and light. Solutions are prepared fresh or frozen at -20° C. and used within 48 hours.
Incubation mixtures consisted of 400 11 PRP, 50 11 of saline diluent or test compound and 50 11 of PAF agohist. More specifically, 40011 of PRP is stabilized in a cuvette for 1-2 minutes at 37° C. in the aggregometer to achieve a stable baseline, then 50 11 of saline or test compound is added and incubated for 5 minutes before addition of the challenge concentration of PAF. A submaximal concentration is determined from the dose response curve for PAF for that experiment. In general, the challenge concentration is 5E-8 or 1E-7M. Aggregation is monitored for 5 minutes. Samples containing test compound or diluent are run simultaneously for comparison. Test compounds are initially evaluated at a screening concentration of 1E-SM.
The recording equipment consists of a dual channel Chronolog aggregometer connected to a dual channel 10MV full scale deflection Omniscribe chart recorder (Houston Instruments). The chart recorder is calibrated daily with the use of a suspension of Bio-Rad latex beads (S-X 12 400 mesh) which has a density slightly greater than rabbit PRP. The bead suspension is used to set the 0% light transmission mark and clear water is used to set the 100% light transmission mark. These limits defined a full scale deflection. The aggregation traces are analyzed by a digitizing method (C. Kohler and B. Zoltan, J. Pharm. Methods, 12, 113, 1984) with x, y coordinate data stored in a computer file. A suitable program computes parameters of interest such as the magnitude of aggregation.

Assay [1] deals with PAF induced lethality in mice. In words: PAF induced lethality in mice. In kind it is in vivo. As to conditions: Mus musculus; 0.5 mg/kg IP 1/2 hour before lethal PAF I.V. challenge; alive after 2 hours; control (saline) 10; read-out: % Survival. The protocol: PAF given I.V. to mice causes an immediate hypotensive shock leading to death in 1 hour or less. Compounds are given intraperitoneally at 1/2 hour prior to the PAF challenge. Animals alive after 2 hours are counted and the activity of test compounds expressed as survival corrected for any control (saline treated) animals which survived the PAF challenge.

T1 sequence (G1TEI7 1-342): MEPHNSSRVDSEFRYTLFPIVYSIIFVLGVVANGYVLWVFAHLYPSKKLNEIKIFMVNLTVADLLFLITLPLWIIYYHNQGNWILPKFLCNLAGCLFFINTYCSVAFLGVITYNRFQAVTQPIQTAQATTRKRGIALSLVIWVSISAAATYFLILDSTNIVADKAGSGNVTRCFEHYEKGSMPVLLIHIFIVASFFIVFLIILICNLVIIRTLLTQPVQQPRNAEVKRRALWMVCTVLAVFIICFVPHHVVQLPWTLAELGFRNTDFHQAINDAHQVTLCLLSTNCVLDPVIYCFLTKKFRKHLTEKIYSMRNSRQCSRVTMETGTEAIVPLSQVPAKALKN

`CCCCCCCCCCCCCCOc1ccccc1CN(Cc1cccc[n+]1C)C(C)=O` [2-[[Acetyl[[2-(tetradecyloxy)phenyl]methyl]amino]-methyl]-1-methylpyridinium iodide]: the IC50 (usually the concentration needed to halve the response being measured) against PAF receptor (PAF challenge 5.00E-08 M) was found to be 43 µM. Besides, in assay [1], the responders at 0.5 mg/kg turned out to be 23%.
At PAF receptor (PAF challenge 1.00E-08 M), `CCCCCCCCCCCCCCOc1ccc(CN(Cc2ccc[n+](C)c2)C(C)=O)cc1` [3-[[Acetyl[[4-(tetradecyloxy)phenyl]methyl]amino]-methyl]-1-methylpyridinium iodide] returned an IC50 of 14 µM. Also, the responders at 0.5 mg/kg in assay [1] stood at 38%.

For the origin of these results see patent US5328921A, “Aryl pyridinium compounds which are useful in treating shock” (American Cyanamid Company, priority 1992, dated 1994).
